In the assay the test system is Influenza A N1H1. The assay is described as follows: In vivo antiviral efficacy in Balb/c mice, lung virus titer by TCID50 assay. Conditions: methylene blue replaced by riboflavin; prophylactic and therapeutic application. Here is the method: Mice received a daily MB-dose of 5 mg/kg based on a daily drinking volume of ˜5-6 ml and a body weight of 25-35 g. The control group received drinking water with saccharin but without methylene blue.
Mice were euthanized and lungs were removed on day 3 post challenge with influenza H1N1 virus. These tissue samples were stored at <−60° C. until they were transferred into homogenization tubes containing 1 ml cell medium supplemented with antibiotics. The lungs were homogenized two times at 5000 rpm for twenty seconds with 10 seconds pause between the intervals with a tissue homogenizer. The infectious H1N1 virus titer in homogenized lung samples was determined by a TCID50 assay performed by titration on Madin-Darby Canine Kidney (MDCK) cells as described above.

Structures are written as SMILES.

As for `Cc1cc2nc3c(=O)[nH]c(=O)nc-3n(C[C@H](O)[C@H](O)[C@H](O)CO)c2cc1C` [riboflavin, 7,8-dimethyl-10-[(2S,3S,4R)-2,3,4,5-tetrahydroxypentyl]benzo[g]pteridine-2,4-dione], the “viricidal efficacy, lung virus titer (TCID50 assay), expected” value is listed as “Analogous results are expected”.

These data come from patent publication US20230226072A1 (priority 2020, published 2023).
